BindingDB's records for doi:10.1021/jm9900016 (Universit&#224, 1999)

Biological target: Thymidylate synthase (Lactobacillus casei)
Test: In vitro inhibition of Lactobacillus casei Thymidylate synthase.

Row | SMILES | Ki [nM]
1 | O=C1OC(c2ccc(O)c(Cl)c2)(c2ccc(O)c(Cl)c2)c2ccccc21 [3,3-Bis-(3-chloro-4-hydroxy-phenyl)-3H-isobenzofuran-1-one] | 1900
2 | O=C1OC(c2ccc(O)cc2)(c2ccc(O)cc2)c2cc3ccccc3cc21 [3,3-Bis-(4-hydroxy-phenyl)-3H-naphtho[2,3-c]furan-1-one] | 7000
3 | O=C1OC(c2ccc(O)cc2)(c2ccc(O)c3ccccc23)c2ccccc21 (stereo not drawn) [3-(4-Hydroxy-naphthalen-1-yl)-3-(4-hydroxy-phenyl)-3H-isobenzofuran-1-one] | 1500
4 | O=C1OC(O)(c2ccc(O)c(Cl)c2)c2ccc([N+](=O)[O-])c3cccc1c23 (stereo not drawn) [3-(3-Chloro-4-hydroxy-phenyl)-3-hydroxy-6-nitro-3H-benzo[de]isochromen-1-one] | 250
5 | O=C1OC(c2ccc(O)c(F)c2)(c2ccc(O)c(F)c2)c2cc3ccccc3cc21 [3,3-Bis-(3-fluoro-4-hydroxy-phenyl)-3H-naphtho[2,3-c]furan-1-one] | 1500
6 | O=C1OC(c2ccc(O)c(Cl)c2)(c2ccc(O)c(Cl)c2)c2cc3ccccc3cc21 [3,3-Bis-(3-chloro-4-hydroxy-phenyl)-3H-naphtho[2,3-c]furan-1-one] | 1500
7 | O=C1OC(O)(c2ccccc2O)c2cccc3cccc1c23 (stereo not drawn) [3-Hydroxy-3-(2-hydroxy-phenyl)-3H-benzo[de]isochromen-1-one] | 105000
8 | O=C1OC(c2ccc(O)cc2)(c2ccc(O)cc2)c2ccc3c4c(ccc1c24)CC3 [7,7-Bis-(4-hydroxy-phenyl)-2,7-dihydro-1H-6-oxa-cyclopenta[cd]phenalen-5-one] | 1500
